According to US12390419B2, “Formulations of (R)-2-amino-3-phenylpropyl carbamate” (AXSOME MALTA LTD., priority 2016, dated 2025):
≈ marks a conversion by molar mass, not a printed value.

Columns and labels:
[1] = Dissolution of coated APC tablets in three media (apparatus 1 basket, 100 rpm, 900 ml, 37° C.); assay type: physicochemical
Procedure: A substantial concern was the effect of media pH. Although APC will be developed as an immediate release product, FDA guidances require comparison of profiles in three media including pH 6.8 (representing intestinal pH). […] The media used were 0.1 N HCl pH 1.2, acetate buffer pH 4.5, and phosphate buffer pH 6.8. The dissolution study was carried using 12 tablets per dose, apparatus 1 (basket), 900 ml media volume, 37° C., 100 rpm. The tablets were coated with Opadry white polymer system.

[2] = Solubility of APC in 0.2M phosphate buffers; assay type: physicochemical

NC(=O)OC[C@H](N)Cc1ccccc1 [APC, (R)-2-amino-3-phenylpropyl carbamate]
Percent release ([1]; 37.5 mg tablet, pH 1.2, 5 min): 71.9%
Percent release ([1]; 37.5 mg tablet, pH 1.2, 10 min): 99.3%
Percent release ([1]; 37.5 mg tablet, pH 1.2, 15 min): 99.7%
Percent release ([1]; 37.5 mg tablet, pH 4.5, 5 min): 76.8%
Percent release ([1]; 37.5 mg tablet, pH 4.5, 10 min): 101.8%
Percent release ([1]; 37.5 mg tablet, pH 4.5, 15 min): 102.1%
Percent release ([1]; 37.5 mg tablet, pH 6.8, 5 min): 69.6%
Percent release ([1]; 37.5 mg tablet, pH 6.8, 10 min): 100.2%
Percent release ([1]; 37.5 mg tablet, pH 6.8, 15 min): 100.7%
Percent release ([1]; 75 mg tablet, pH 1.2, 5 min): 62.9%
Percent release ([1]; 75 mg tablet, pH 1.2, 10 min): 98.7%
Percent release ([1]; 75 mg tablet, pH 1.2, 15 min): 99.4%
Percent release ([1]; 75 mg tablet, pH 4.5, 5 min): 53.9%
Percent release ([1]; 75 mg tablet, pH 4.5, 10 min): 100.8%
Percent release ([1]; 75 mg tablet, pH 4.5, 15 min): 102.5%
Percent release ([1]; 75 mg tablet, pH 6.8, 5 min): 57.6%
Percent release ([1]; 75 mg tablet, pH 6.8, 10 min): 99.4%
Percent release ([1]; 75 mg tablet, pH 6.8, 15 min): 100.2%
Percent release ([1]; 150 mg tablet, pH 1.2, 5 min): 46.8%
Percent release ([1]; 150 mg tablet, pH 1.2, 10 min): 96.9%
Percent release ([1]; 150 mg tablet, pH 1.2, 15 min): 98.4%
Percent release ([1]; 150 mg tablet, pH 4.5, 5 min): 42.6%
Percent release ([1]; 150 mg tablet, pH 4.5, 10 min): 97.7%
Percent release ([1]; 150 mg tablet, pH 4.5, 15 min): 100.4%
Percent release ([1]; 150 mg tablet, pH 6.8, 5 min): 42.4%
Percent release ([1]; 150 mg tablet, pH 6.8, 10 min): 97.4%
Percent release ([1]; 150 mg tablet, pH 6.8, 15 min): 100.7%
Percent release ([1]; 300 mg tablet, pH 1.2, 5 min): 35.0%
Percent release ([1]; 300 mg tablet, pH 1.2, 10 min): 91.2%
Percent release ([1]; 300 mg tablet, pH 1.2, 15 min): 99.5%
Percent release ([1]; 300 mg tablet, pH 4.5, 5 min): 30.0%
Percent release ([1]; 300 mg tablet, pH 4.5, 10 min): 89.1%
Percent release ([1]; 300 mg tablet, pH 4.5, 15 min): 99.8%
Percent release ([1]; 300 mg tablet, pH 6.8, 5 min): 31.6%
Percent release ([1]; 300 mg tablet, pH 6.8, 10 min): 89.9%
Percent release ([1]; 300 mg tablet, pH 6.8, 15 min): 100.2%
solubility ([2]; 0.2M phosphate buffer, pH 6.8, aqueous buffer, thermodynamic from solid): 26 mg/mL (≈ 134 mM)
solubility ([2]; aqueous buffer, thermodynamic from solid, 0.2M phosphate buffer pH 5.33, pH after equilibration 4.25): 542 mg/mL (≈ 2790 mM)
solubility ([2]; aqueous buffer, thermodynamic from solid, 0.2M phosphate buffer pH 5.95, pH after equilibration 4.78): 525 mg/mL (≈ 2710 mM)
solubility ([2]; aqueous buffer, thermodynamic from solid, 0.2M phosphate buffer pH 6.97, pH after equilibration 6.76): 26.6 mg/mL (≈ 137 mM)
solubility ([2]; aqueous buffer, thermodynamic from solid, 0.2M phosphate buffer pH 8.02, pH after equilibration 7.47): 22.5 mg/mL (≈ 116 mM)
solubility ([2]; aqueous buffer, thermodynamic from solid, 0.2M phosphate buffer pH 8.99, pH after equilibration 7.55): 22.4 mg/mL (≈ 115 mM)
solubility ([2]; pH 4.22, thermodynamic from solid, pH of buffer N/A (water), pH after equilibration 4.22): 534 mg/mL (≈ 2750 mM)
solubility ([2]; water or acidic media, water, thermodynamic from solid): 530 mg/mL (≈ 2730 mM)
